Test results from publication PMC6151550, “Inhibitory Effect of Selaginellins from Selaginella tamariscina (Beauv.) Spring against Cytochrome P450 and Uridine 5′-Diphosphoglucuronosyltransferase Isoforms on Human Liver Microsomes” (Molecules : A Journal of Synthetic Chemistry and Natural …, 2017).

Experiments:
Format in all cases: in vitro ADME
CYP2B6 = molecular target: T1, CYP2B6 (Homo sapiens, UniProt P20813); test: CYP2B6 inhibition (bupropion 4-hydroxylase) in human liver microsomes, substrate cocktail LC-MS/MS
T1 construct: the incubation mixtures containing pooled HLMs (0.25 mg/mL, H2630, Xenotech); tissue Xenotech H2630; host or cells: pooled human liver microsomes
T1 sequence (P20813 1-491): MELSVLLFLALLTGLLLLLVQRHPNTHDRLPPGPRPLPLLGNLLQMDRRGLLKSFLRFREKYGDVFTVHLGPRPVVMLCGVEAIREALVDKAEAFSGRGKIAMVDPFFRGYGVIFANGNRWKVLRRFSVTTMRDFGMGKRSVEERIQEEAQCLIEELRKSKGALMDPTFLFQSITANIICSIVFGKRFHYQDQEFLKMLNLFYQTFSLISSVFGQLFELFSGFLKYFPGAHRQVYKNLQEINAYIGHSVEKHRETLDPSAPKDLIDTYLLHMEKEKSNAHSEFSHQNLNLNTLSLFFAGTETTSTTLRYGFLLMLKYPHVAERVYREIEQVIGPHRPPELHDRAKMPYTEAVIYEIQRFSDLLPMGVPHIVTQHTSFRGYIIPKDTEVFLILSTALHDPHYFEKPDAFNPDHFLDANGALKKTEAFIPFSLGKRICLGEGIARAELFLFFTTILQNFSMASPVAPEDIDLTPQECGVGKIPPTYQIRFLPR
Method: (§1) The inhibitory effects of two selaginellins on the metabolism of ten P450 probe substrates were evaluated using previously reported method with minor modification. Phenacetin O-deethylase, coumarin 7-hydroxylase, bupropion 4-hydroxylase, amodiaquine N-deethylase, tolbutamide 4-hydroxylase, omeprazole 5-hydroxylase, dextromethorphan O-demethylase, chlorzoxazone 6-hydroxylase and midazolam 1′-hydroxylase activities were determined as probe activities for CYP1A2, CYP2A6, CYP2B6, CYP2C8, CYP2C9, CYP2C19, CYP2D6, CYP2E1 and […], respectively, using substrate cocktail incubation and tandem mass spectrometry (Table 2). Selaginellins were dissolved in methanol. The final concentrations of organic solvent (methanol) for the cocktail incubation conditions in all experiments were 1.0% (v/v). In brief, the incubation mixtures containing pooled HLMs (0.25 mg/mL, H2630, Xenotech), P450 probe substrate cocktail, and inhibitor (0, 0.5, 2, 5, 20 and 50 μM) were preincubated at 37 °C for 5 min. […] After mixing and centrifugation, aliquots were analyzed by liquid chromatography-tandem mass spectrometry (LC-MS/MS) as previous described. The CYP2J2 inhibitory effects of two selaginellins were also evaluated in pooled HLMs using previously reported method. […]

CYP2E1 = molecular target: T2, CYP2E1 (Homo sapiens, UniProt P05181); test: CYP2E1 inhibition (chlorzoxazone 6-hydroxylase) in human liver microsomes, substrate cocktail LC-MS/MS
T2 construct: the incubation mixtures containing pooled HLMs (0.25 mg/mL, H2630, Xenotech); tissue Xenotech H2630; host or cells: pooled human liver microsomes
Method: as §1

UGT1A4 = molecular target: T3, UGT1A4 (Homo sapiens, UniProt P22310); test: UGT1A4 inhibition (trifluoperazine glucuronidation) in human liver microsomes, cocktail LC-MS/MS
T3 construct: from tissue; host or cells: human liver microsomes
T3 sequence (P22310 29-534): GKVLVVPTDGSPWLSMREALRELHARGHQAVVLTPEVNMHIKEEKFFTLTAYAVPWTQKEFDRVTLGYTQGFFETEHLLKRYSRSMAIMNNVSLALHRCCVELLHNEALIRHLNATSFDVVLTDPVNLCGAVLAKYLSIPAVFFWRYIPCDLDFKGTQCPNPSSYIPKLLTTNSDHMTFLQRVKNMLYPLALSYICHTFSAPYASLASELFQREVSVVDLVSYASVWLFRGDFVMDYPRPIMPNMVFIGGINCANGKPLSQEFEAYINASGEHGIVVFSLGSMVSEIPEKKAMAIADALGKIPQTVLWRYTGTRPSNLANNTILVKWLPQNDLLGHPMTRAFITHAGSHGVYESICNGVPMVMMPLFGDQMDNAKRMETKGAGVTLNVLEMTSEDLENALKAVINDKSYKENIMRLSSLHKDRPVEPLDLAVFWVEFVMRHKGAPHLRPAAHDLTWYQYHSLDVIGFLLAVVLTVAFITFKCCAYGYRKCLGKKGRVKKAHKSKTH
Method: (§2) The inhibitory effects of two selaginellins on the metabolism of six UGT probe substrates were evaluated using previously reported method with minor modification. In brief, HLMs (0.25 mg/mL) were activated by incubation in the presence of alamethicin (25 μg/mL) for 15 min on ice. After the addition of UGT isoform-selective substrates and selaginellins (0, 0.5, 2, 5, 20 and 50 μM) the final concentrations of organic solvent (methanol) for the cocktail incubation conditions were 1.0% (v/v). The incubation reaction mixtures were pre-incubated for 5 min. The reaction was initiated by the addition of 5 mM UDPGA and further incubated for 60 min. All reactions were terminated by adding ice-cold acetonitrile containing estrone glucuronide (IS). After mixing and centrifugation, aliquots were injected into a LC-MS/MS as described previously (Table 2). All microsomal incubations were performed in triplicate.
(§3) The IC50 values (concentration of the inhibitor causing 50% inhibition of the original enzyme activity) were calculated using WinNonlin software (Pharsight, Mountain View, CA, USA): percentage of control activity = 100 × [1 − (I/(I + IC50))], where I is the inhibitor concentration, and IC50 is the inflection point on the curve.

UGT1A6 = molecular target: T4, UGT1A6 (Homo sapiens, UniProt P19224); test: UGT1A6 inhibition (N-acetylserotonin glucuronidation) in human liver microsomes, cocktail LC-MS/MS
T4 construct: from tissue; host or cells: human liver microsomes
T4 sequence (P19224 27-532): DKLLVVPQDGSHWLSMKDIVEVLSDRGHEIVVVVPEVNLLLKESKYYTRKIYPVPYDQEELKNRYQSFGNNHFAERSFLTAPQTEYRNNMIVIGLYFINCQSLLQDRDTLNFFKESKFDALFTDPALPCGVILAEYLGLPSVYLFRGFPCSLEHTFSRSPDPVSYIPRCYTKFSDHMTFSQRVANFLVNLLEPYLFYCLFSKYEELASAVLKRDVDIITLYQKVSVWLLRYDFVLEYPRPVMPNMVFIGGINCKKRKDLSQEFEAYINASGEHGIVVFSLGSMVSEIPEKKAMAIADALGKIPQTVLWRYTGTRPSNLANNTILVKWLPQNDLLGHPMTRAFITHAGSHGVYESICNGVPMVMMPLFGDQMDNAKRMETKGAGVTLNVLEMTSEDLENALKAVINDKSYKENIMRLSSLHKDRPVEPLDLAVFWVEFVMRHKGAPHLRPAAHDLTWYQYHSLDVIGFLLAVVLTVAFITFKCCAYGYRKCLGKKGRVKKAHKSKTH
Method: as §2, §3

T2 sequence (P05181 whole entry): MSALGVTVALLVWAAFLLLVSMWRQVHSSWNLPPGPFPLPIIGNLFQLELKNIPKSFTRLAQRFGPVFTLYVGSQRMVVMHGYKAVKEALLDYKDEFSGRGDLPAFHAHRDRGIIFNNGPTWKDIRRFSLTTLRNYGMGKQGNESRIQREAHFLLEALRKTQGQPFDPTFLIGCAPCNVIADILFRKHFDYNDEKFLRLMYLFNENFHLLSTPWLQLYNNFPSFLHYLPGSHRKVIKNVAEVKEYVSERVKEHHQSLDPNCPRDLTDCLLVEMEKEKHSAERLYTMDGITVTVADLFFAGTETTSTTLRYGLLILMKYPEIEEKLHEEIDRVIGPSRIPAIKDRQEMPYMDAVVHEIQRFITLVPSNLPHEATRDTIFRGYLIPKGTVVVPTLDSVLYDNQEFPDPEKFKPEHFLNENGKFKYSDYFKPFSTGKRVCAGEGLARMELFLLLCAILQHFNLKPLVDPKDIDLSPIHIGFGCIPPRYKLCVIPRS

Structure (SMILES) | IC50 (CYP2B6) | IC50 (CYP2E1) | IC50 (UGT1A4) | IC50 (UGT1A6)
COc1ccc(C(=C2C=CC(=O)C=C2)c2c(-c3ccc(O)cc3)ccc(CO)c2C#Cc2ccc(O)cc2)cc1 [Selaginellin M] | 11.3 µM | > 50 µM | 3.9 µM | 36.5 µM
O=C1C=CC(=C(c2ccc(O)cc2)c2c(-c3ccc(O)cc3)ccc(CO)c2C#Cc2ccc(O)cc2)C=C1 [Selaginellin] | 10.7 µM | 38.5 µM | 6.6 µM | 25.3 µM
